Twelve compounds from paper PMC10938434, “Design, Synthesis, and Biological Effect Studies of Novel Benzofuran–Thiazolylhydrazone Derivatives as Monoamine Oxidase Inhibitors” (ACS Omega, 2024) can be followed below.

One experiment addresses T1, MAO-A enzyme (Homo sapiens, UniProt P21397).
T1 sequence (P21397 1-527): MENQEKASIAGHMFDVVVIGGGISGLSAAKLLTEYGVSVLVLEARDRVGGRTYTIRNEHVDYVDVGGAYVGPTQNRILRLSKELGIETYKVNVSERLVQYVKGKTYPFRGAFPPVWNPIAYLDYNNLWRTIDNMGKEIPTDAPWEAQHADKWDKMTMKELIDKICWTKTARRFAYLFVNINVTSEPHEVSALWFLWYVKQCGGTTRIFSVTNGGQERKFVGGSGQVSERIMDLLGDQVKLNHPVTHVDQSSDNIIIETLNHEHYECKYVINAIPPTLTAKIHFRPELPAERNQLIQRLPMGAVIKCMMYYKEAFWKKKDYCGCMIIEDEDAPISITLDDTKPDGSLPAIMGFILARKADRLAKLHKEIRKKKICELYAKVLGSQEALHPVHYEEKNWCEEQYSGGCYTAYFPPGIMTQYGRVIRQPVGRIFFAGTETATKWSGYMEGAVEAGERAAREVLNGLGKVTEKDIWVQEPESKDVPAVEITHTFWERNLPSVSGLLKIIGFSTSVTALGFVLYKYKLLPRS
The experiment in a line: MAO-A enzyme inhibition, fluorometric method. It counts as biochemical. The conditions noted are these: for IC50: 10^–3–10^–9 M concentrations; for selectivity: MAO isoform preferentially inhibited; for SI* selectivity index: SI = IC50MAO-B/IC50 MAO-A; for inhibition at 1000 µM: read-out: MAO-A % inhibition 10^–3 M; for inhibition at 100 µM: read-out: MAO-A % inhibition 10^–4 M. An excerpt:
(§1) Inhibition profiles of the synthesized compounds on MAO enzymes were investigated by the fluorometric method.
(§2) In every step of the method, distilled water obtained from a Millipor, a Milli-Q Synthesis A10 purification device, was used. Care was taken in preparing all of the solutions used fresh and to consume them within 1 week after preparation. A BioTek-Precision Power robotic pipetting system was used in the processes of separating the solutions prepared in the enzyme inhibition study, applying the test compounds to 96-well plates, and adding the enzyme–substrate solutions.

For the next experiment, the target named is T2, MAO-B enzyme (Homo sapiens, UniProt P27338).
T2 sequence (P27338 1-520): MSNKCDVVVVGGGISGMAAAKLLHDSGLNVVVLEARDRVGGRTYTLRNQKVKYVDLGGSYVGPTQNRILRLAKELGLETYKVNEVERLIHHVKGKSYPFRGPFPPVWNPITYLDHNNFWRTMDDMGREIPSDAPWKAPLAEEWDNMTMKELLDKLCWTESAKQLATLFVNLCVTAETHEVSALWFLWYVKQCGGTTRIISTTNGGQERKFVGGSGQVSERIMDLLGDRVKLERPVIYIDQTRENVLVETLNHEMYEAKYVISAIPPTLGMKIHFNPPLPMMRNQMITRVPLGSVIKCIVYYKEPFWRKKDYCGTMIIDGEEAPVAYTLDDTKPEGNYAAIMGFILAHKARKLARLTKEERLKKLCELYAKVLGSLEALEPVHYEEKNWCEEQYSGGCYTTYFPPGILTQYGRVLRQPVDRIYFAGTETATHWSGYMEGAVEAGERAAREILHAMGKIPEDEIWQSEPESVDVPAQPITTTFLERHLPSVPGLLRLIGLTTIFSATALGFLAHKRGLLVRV
The experiment is described as follows: MAO-B enzyme inhibition, fluorometric method. It counts as biochemical. The conditions noted are these: for inhibition at 1000 µM: 10^–3 M; for inhibition at 100 µM: read-out: MAO-B % inhibition 10^–4 M, 10^–4 M.
From the text: as §1
as §2, with “solutions. The creation, monitoring, and spectrophotometric measurements of the enzyme protocol were performed on a BioTek-Synergy H1 microplate reader.[41],[42]” for “solutions.”

Structures are written as SMILES. Bounds are passed on as bounds.

Turning to `C(=NNc1nc(-c2ccccc2)cs1)c1cc2ccccc2o1` [2a, 2-(2-(Benzofuran-2-ylmethylene)hydrazinyl)-4-phenylthiazole], on MAO-A enzyme, the IC50 came to 80 ± 10 nM, the selectivity entry is “MAO-A”, the “SI* selectivity index” value is above 9.91 and the inhibition at 1000 µM was 90.4 ± 1.66%. The inhibition at 100 µM on MAO-A enzyme is 83.7 ± 1.09%. Further, at MAO-B enzyme, the 50% inhibitory concentration (IC50) was determined as 800 ± 30 nM, the inhibition at 1000 µM was 85.2 ± 1.01% and the inhibition at 100 µM is above 50%.
As to `Cc1ccc(-c2csc(NN=Cc3cc4ccccc4o3)n2)cc1` [2b, 2-(2-(Benzofuran-2-ylmethylene)hydrazinyl)-4-(p-tolyl)thiazole], on MAO-A enzyme, the IC50 was 210 ± 10 nM, the selectivity entry is reported as “MAO-A”, the “SI* selectivity index” value is above 458.72 and the inhibition at 1000 µM is 87 ± 1.92%. On MAO-A enzyme, the inhibition at 100 µM was 78.2 ± 1.44%. On MAO-B enzyme, the IC50 was above 100000 nM, the inhibition at 1000 µM came to 64.5 ± 1.12% and the inhibition at 100 µM was 47.1 ± 0.85%.
Consider `COc1ccc(-c2csc(NN=Cc3cc4ccccc4o3)n2)cc1` [2c, 2-(2-(Benzofuran-2-ylmethylene)hydrazinyl)-4-(4-methoxyphenyl)thiazole], for which, on MAO-A enzyme, inhibition was half-maximal at 180 ± 10 nM (IC50), the selectivity result is “MAO-A”, the “SI* selectivity index” value was above 568.18 and the inhibition at 1000 µM worked out at 85.2 ± 2.03%. The inhibition at 100 µM at MAO-A enzyme amounted to 72.8 ± 1.36%. Also, on MAO-B enzyme, the IC50 was above 100000 nM, the inhibition at 1000 µM worked out at 55.8 ± 0.96% and the inhibition at 100 µM amounted to 42.8 ± 0.89%.
Take `N#Cc1ccc(-c2csc(NN=Cc3cc4ccccc4o3)n2)cc1` [2d, 4-(2-(2-(Benzofuran-2-ylmethylene)hydrazinyl)thiazol-4-yl)benzonitrile]: at MAO-A enzyme, inhibition was half-maximal at 310 ± 10 nM (IC50), the selectivity result is listed as “MAO-A”, the “SI* selectivity index” value was above 326.79 and the inhibition at 1000 µM was determined as 80.8 ± 1.69%. Besides, the inhibition at 100 µM on MAO-A enzyme worked out at 71 ± 1.18%. Moreover, at MAO-B enzyme, the IC50 was above 100000 nM, the inhibition at 1000 µM amounted to 69 ± 1.05% and the inhibition at 100 µM is 40.7 ± 0.98%.
Take `O=[N+]([O-])c1ccc(-c2csc(NN=Cc3cc4ccccc4o3)n2)cc1` [2e, 2-(2-(Benzofuran-2-ylmethylene)hydrazinyl)-4-(4-nitrophenyl)thiazole]: at MAO-A enzyme, the IC50 is 260 ± 10 nM, the selectivity result is “MAO-A”, the “SI* selectivity index” value was above 386.10 and the inhibition at 1000 µM worked out at 83.2 ± 1.65%. The inhibition at 100 µM at MAO-A enzyme is 69.3 ± 0.9%. For the same compound, at MAO-B enzyme, the IC50 is above 100000 nM, the inhibition at 1000 µM was 72.1 ± 1.4% and the inhibition at 100 µM is 48.3 ± 0.86%.
`Fc1ccc(-c2csc(NN=Cc3cc4ccccc4o3)n2)cc1` [2f, 2-(2-(Benzofuran-2-ylmethylene)hydrazinyl)-4-(4-fluorophenyl)thiazole]: on MAO-A enzyme, the midpoint of inhibition, the IC50, lay at 340 ± 10 nM; the selectivity entry was “MAO-A”; the “SI* selectivity index” value was above 4.06; the inhibition at 1000 µM came to 85.7 ± 1.48%. Further, the inhibition at 100 µM on MAO-A enzyme worked out at 73.6 ± 1.16%. At MAO-B enzyme, the IC50 stood at 1370 ± 60 nM, the inhibition at 1000 µM is 82.7 ± 1.66% and the inhibition at 100 µM was above 50%.
For the compound `Clc1ccc(-c2csc(NN=Cc3cc4ccccc4o3)n2)cc1` [2g, 2-(2-(Benzofuran-2-ylmethylene)hydrazinyl)-4-(4-chlorophenyl)thiazole], at MAO-A enzyme, it took 90 ± 10 nM to reach half-maximal inhibition (IC50), the selectivity result is reported as “MAO-A”, the “SI* selectivity index” value is above 1075.27 and the inhibition at 1000 µM is 79.5 ± 1.06%. Further, the inhibition at 100 µM at MAO-A enzyme worked out at 68.7 ± 0.94%. Moreover, at MAO-B enzyme, the IC50 is above 100000 nM, the inhibition at 1000 µM worked out at 68.4 ± 0.97% and the inhibition at 100 µM is 45.2 ± 0.86%.
As to `Brc1ccc(-c2csc(NN=Cc3cc4ccccc4o3)n2)cc1` [2h, 2-(2-(Benzofuran-2-ylmethylene)hydrazinyl)-4-(4-bromophenyl)thiazole], on MAO-A enzyme, the IC50 worked out at 420 ± 20 nM, the selectivity result is recorded as “MAO-A”, the “SI* selectivity index” value is above 2.53 and the inhibition at 1000 µM is 86.8 ± 1.6%. Further, the inhibition at 100 µM on MAO-A enzyme worked out at 78.5 ± 1.09%. At MAO-B enzyme, the IC50 amounted to 1060 ± 50 nM, the inhibition at 1000 µM was found to be 70.2 ± 1.36% and the inhibition at 100 µM is above 50%.
Turning to `Cc1ccc(-c2csc(NN=Cc3cc4ccccc4o3)n2)c(C)c1` [2i, 2-(2-(Benzofuran-2-ylmethylene)hydrazinyl)-4-(2,4-dimethylphenyl)thiazole], at MAO-A enzyme, the IC50 is 430 ± 20 nM, the selectivity entry was “MAO-A”, the “SI* selectivity index” value is above 3.93 and the inhibition at 1000 µM amounted to 84.2 ± 1.35%. On MAO-A enzyme, the inhibition at 100 µM was determined as 71.3 ± 1.86%. Also, at MAO-B enzyme, the IC50 was determined as 1690 ± 80 nM, the inhibition at 1000 µM was 73.5 ± 1.49% and the inhibition at 100 µM is above 50%.
Regarding `COc1ccc(-c2csc(NN=Cc3cc4ccccc4o3)n2)c(OC)c1` [2j, 2-(2-(Benzofuran-2-ylmethylene)hydrazinyl)-4-(2,4-dimethoxyphenyl)thiazole], on MAO-A enzyme, the IC50 amounted to 140 ± 10 nM, the selectivity entry is “MAO-A”, the “SI* selectivity index” value is recorded as above 719.42 and the inhibition at 1000 µM is 87.5 ± 1.8%. For the same compound, the inhibition at 100 µM on MAO-A enzyme turned out to be 68.4 ± 1.15%. Also, on MAO-B enzyme, the IC50 was above 100000 nM, the inhibition at 1000 µM turned out to be 67.9 ± 1.3% and the inhibition at 100 µM was determined as 41.5 ± 0.75%.
As for `Fc1ccc(-c2csc(NN=Cc3cc4ccccc4o3)n2)c(F)c1` [2k, 2-(2-(Benzofuran-2-ylmethylene)hydrazinyl)-4-(2,4-difluorophenyl)thiazole], at MAO-A enzyme, the IC50 turned out to be 130 ± 10 nM, the selectivity result was “MAO-A”, the “SI* selectivity index” value was above 787.40 and the inhibition at 1000 µM came out at 89.9 ± 1.76%. Also, at MAO-A enzyme, the inhibition at 100 µM is 73.7 ± 0.83%. Further, on MAO-B enzyme, the IC50 was above 100000 nM, the inhibition at 1000 µM worked out at 74.5 ± 1.4% and the inhibition at 100 µM amounted to 40.7 ± 0.95%.
Consider `O=C(NCCN1CCOCC1)c1ccc(Cl)cc1` [Moclobemid, moclobemide, reference compound], for which, on MAO-A enzyme, the inhibition at 1000 µM turned out to be 94.1 ± 2.76% and the inhibition at 100 µM turned out to be 82.1 ± 2.69%.

The term IC50 denotes the concentration that gives 50% inhibition. By inhibition is commonly meant the drop in the measured response relative to a control, in per cent.
